Source: ChEMBL document CHEMBL1201862, “PubChem BioAssay data set” (2004)
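Each compound was tested at five concentrations against cells in 96-well plates for 48 hours. Abbreviation: GI50, concentration required for 50% inhibition of growth.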 Activity calls are given as the source filed them. Rule as the data show it: active = GI50 up to about 1.1 µM and inactive = higher.

What was measured:
Assay in all cases: NCI tumour cell line growth inhibition, 48 h
SNB-75 = system: SNB-75
DU-145 = system: DU-145
M14 = system: M14
UO-31 = system: UO-31
HOP-62 = system: HOP-62
SK-MEL-28 = system: SK-MEL-28
Malme-3M = system: Malme-3M
A498 = system: A498
HCT-116 = system: HCT-116
SF-268 = system: SF-268
786-0 = system: 786-0
HCC 2998 = system: HCC 2998
UACC-62 = system: UACC-62
SW-620 = system: SW-620
NCI-H23 = system: NCI-H23
OVCAR-4 = system: OVCAR-4
OVCAR-3 = system: OVCAR-3
HCT-15 = system: HCT-15
MCF7 = system: MCF7
RPMI-8226 = system: RPMI-8226
SK-MEL-2 = system: SK-MEL-2
HL-60 = system: HL-60
SK-MEL-5 = system: SK-MEL-5
SR = system: SR
NCI/ADR-RES = system: NCI/ADR-RES
MDA-MB-231 = system: MDA-MB-231
Hs-578T = system: Hs-578T
OVCAR-5 = system: OVCAR-5
K562 = system: K562
U-251 = system: U-251
MDA-MB-435 = system: MDA-MB-435
ACHN = system: ACHN
SN12C = system: SN12C
HOP-92 = system: HOP-92
HT-29 = system: HT-29
SK-OV-3 = system: SK-OV-3
KM12 = system: KM12
BT-549 = system: BT-549
NCI-H226 = system: NCI-H226
SNB-19 = system: SNB-19
RXF 393 = system: RXF 393
MDA-N = system: MDA-N
SF-539 = system: SF-539
A549 = system: A549
T47D = system: T47D
TK-10 = system: TK-10
UACC-257 = system: UACC-257
LOX IMVI = system: LOX IMVI
COLO 205 = system: COLO 205
NCI-H460 = system: NCI-H460
SF-295 = system: SF-295
MOLT-4 = system: MOLT-4
CAKI-1 = system: CAKI-1
CCRF-CEM = system: CCRF-CEM
NCI-H522 = system: NCI-H522
OVCAR-8 = system: OVCAR-8
EKVX = system: EKVX
IGROV-1 = system: IGROV-1
PC-3 = system: PC-3

## COc1ccc(-c2cn3c(nc4ccccc43)c(/C=C/c3cccs3)n2)cc1
SNB-75
  GI50: 52.6 µM (inactive)
DU-145
  GI50: > 100 µM (inactive)
M14
  GI50: 37.8 µM (inactive)
UO-31
  GI50: > 100 µM (inactive)
HOP-62
  GI50: 83 µM (inactive)
SK-MEL-28
  GI50: 80 µM (inactive)
Malme-3M
  GI50: 23.4 µM (inactive)
A498
  GI50: > 100 µM (inactive)
HCT-116
  GI50: 51.2 µM (inactive)
SF-268
  GI50: 59.2 µM (inactive)
786-0
  GI50: 71.3 µM (inactive)
HCC 2998
  GI50: 49.5 µM (inactive)
UACC-62
  GI50: 68.2 µM (inactive)
SW-620
  GI50: 41.1 µM (inactive)
NCI-H23
  GI50: 33.8 µM (inactive)
OVCAR-4
  GI50: 49.7 µM (inactive)
OVCAR-3
  GI50: 21.6 µM (inactive)
HCT-15
  GI50: 26.7 µM
MCF7
  GI50: 15 µM (inactive)
RPMI-8226
  GI50: 15.4 µM (inactive)
SK-MEL-2
  GI50: 10.6 µM (inactive)
HL-60
  GI50: 20.4 µM (inactive)
SK-MEL-5
  GI50: 15.8 µM (inactive)
SR
  GI50: 2.65 µM (inactive)
NCI/ADR-RES
  GI50: 13 µM (inactive)
MDA-MB-231
  GI50: > 100 µM (inactive)
Hs-578T
  GI50: 28.4 µM (inactive)
OVCAR-5
  GI50: > 100 µM (inactive)
K562
  GI50: 9.48 µM (inactive)
U-251
  GI50: 53.1 µM (inactive)
MDA-MB-435
  GI50: 4.28 µM (inactive)
ACHN
  GI50: > 100 µM (inactive)
SN12C
  GI50: > 100 µM (inactive)
HOP-92
  GI50: 16.9 µM (inactive)
HT-29
  GI50: 29.8 µM (inactive)
SK-OV-3
  GI50: 75.2 µM (inactive)
KM12
  GI50: 11.9 µM (inactive)
BT-549
  GI50: 63 µM (inactive)
NCI-H226
  GI50: > 100 µM (inactive)
SNB-19
  GI50: 92.3 µM (inactive)
RXF 393
  GI50: > 100 µM (inactive)
MDA-N
  GI50: 7.53 µM (inactive)
SF-539
  GI50: 89.7 µM (inactive)
A549
  GI50: 55.6 µM (inactive)
T47D
  GI50: 43.2 µM (inactive)
TK-10
  GI50: > 100 µM (inactive)
UACC-257
  GI50: 62.7 µM (inactive)
LOX IMVI
  GI50: 35.3 µM (inactive)
COLO 205
  GI50: 29.8 µM (inactive)
NCI-H460
  GI50: 32.4 µM (inactive)

## NC1CC(Cl)c2c(Cl)sc(Cl)c21 (stereo unspecified)
SNB-75
  GI50: > 100 µM (inactive)
DU-145
  GI50: > 100 µM (inactive)
M14
  GI50: > 100 µM (inactive)
UO-31
  GI50: > 100 µM (inactive)
HOP-62
  GI50: > 100 µM (inactive)
SF-295
  GI50: > 100 µM (inactive)
SK-MEL-28
  GI50: > 100 µM (inactive)
Malme-3M
  GI50: > 100 µM (inactive)
MOLT-4
  GI50: > 100 µM (inactive)
A498
  GI50: > 100 µM (inactive)
HCT-116
  GI50: > 100 µM (inactive)
SF-268
  GI50: > 100 µM (inactive)
786-0
  GI50: > 100 µM (inactive)
HCC 2998
  GI50: 53.2 µM (inactive)
UACC-62
  GI50: > 100 µM (inactive)
SW-620
  GI50: > 100 µM (inactive)
NCI-H23
  GI50: > 100 µM (inactive)
OVCAR-4
  GI50: > 100 µM (inactive)
OVCAR-3
  GI50: > 100 µM (inactive)
HCT-15
  GI50: > 100 µM
MCF7
  GI50: > 100 µM (inactive)
SK-MEL-2
  GI50: > 100 µM (inactive)
HL-60
  GI50: > 100 µM (inactive)
SK-MEL-5
  GI50: > 100 µM (inactive)
CAKI-1
  GI50: > 100 µM (inactive)
SR
  GI50: 61.8 µM (inactive)
NCI/ADR-RES
  GI50: > 100 µM (inactive)
MDA-MB-231
  GI50: > 100 µM (inactive)
Hs-578T
  GI50: > 100 µM (inactive)
CCRF-CEM
  GI50: 34 µM (inactive)
OVCAR-5
  GI50: > 100 µM (inactive)
K562
  GI50: > 100 µM (inactive)
U-251
  GI50: > 100 µM (inactive)
NCI-H522
  GI50: < 0.01 µM (active)
MDA-MB-435
  GI50: > 100 µM (inactive)
ACHN
  GI50: > 100 µM (inactive)
SN12C
  GI50: > 100 µM (inactive)
HOP-92
  GI50: > 100 µM (inactive)
HT-29
  GI50: > 100 µM (inactive)
SK-OV-3
  GI50: > 100 µM (inactive)
KM12
  GI50: > 100 µM (inactive)
BT-549
  GI50: > 100 µM (inactive)
NCI-H226
  GI50: > 100 µM (inactive)
RXF 393
  GI50: 14.2 µM (inactive)
MDA-N
  GI50: > 100 µM (inactive)
SF-539
  GI50: > 100 µM (inactive)
A549
  GI50: > 100 µM (inactive)
T47D
  GI50: > 100 µM (inactive)
TK-10
  GI50: > 100 µM (inactive)
UACC-257
  GI50: > 100 µM (inactive)
OVCAR-8
  GI50: > 100 µM (inactive)
LOX IMVI
  GI50: > 100 µM (inactive)
EKVX
  GI50: > 100 µM (inactive)
COLO 205
  GI50: > 100 µM (inactive)
NCI-H460
  GI50: > 100 µM (inactive)
IGROV-1
  GI50: > 100 µM (inactive)

## CCOC(=O)/C(C(=O)Nc1cccc(Cl)c1)=C(/N)N1CCCC1
SNB-75
  GI50: > 100 µM (inactive)
DU-145
  GI50: > 100 µM (inactive)
M14
  GI50: > 100 µM (inactive)
HOP-62
  GI50: > 100 µM (inactive)
SF-295
  GI50: > 100 µM (inactive)
SK-MEL-28
  GI50: > 100 µM (inactive)
Malme-3M
  GI50: > 100 µM (inactive)
MOLT-4
  GI50: > 100 µM (inactive)
A498
  GI50: > 100 µM (inactive)
HCT-116
  GI50: > 100 µM (inactive)
SF-268
  GI50: > 100 µM (inactive)
786-0
  GI50: > 100 µM (inactive)
HCC 2998
  GI50: > 100 µM (inactive)
UACC-62
  GI50: > 100 µM (inactive)
SW-620
  GI50: > 100 µM (inactive)
NCI-H23
  GI50: > 100 µM (inactive)
OVCAR-4
  GI50: > 100 µM (inactive)
OVCAR-3
  GI50: > 100 µM (inactive)
HCT-15
  GI50: > 100 µM
MCF7
  GI50: > 100 µM (inactive)
RPMI-8226
  GI50: > 100 µM (inactive)
SK-MEL-2
  GI50: > 100 µM (inactive)
HL-60
  GI50: > 100 µM (inactive)
CAKI-1
  GI50: > 100 µM (inactive)
NCI/ADR-RES
  GI50: > 100 µM (inactive)
MDA-MB-231
  GI50: > 100 µM (inactive)
Hs-578T
  GI50: > 100 µM (inactive)
CCRF-CEM
  GI50: > 100 µM (inactive)
OVCAR-5
  GI50: > 100 µM (inactive)
K562
  GI50: > 100 µM (inactive)
U-251
  GI50: > 100 µM (inactive)
NCI-H522
  GI50: > 100 µM (inactive)
MDA-MB-435
  GI50: > 100 µM (inactive)
ACHN
  GI50: > 100 µM (inactive)
SN12C
  GI50: > 100 µM (inactive)
HT-29
  GI50: > 100 µM (inactive)
SK-OV-3
  GI50: > 100 µM (inactive)
KM12
  GI50: > 100 µM (inactive)
BT-549
  GI50: > 100 µM (inactive)
NCI-H226
  GI50: > 100 µM (inactive)
PC-3
  GI50: > 100 µM (inactive)
SNB-19
  GI50: > 100 µM (inactive)
RXF 393
  GI50: > 100 µM (inactive)
MDA-N
  GI50: > 100 µM (inactive)
SF-539
  GI50: > 100 µM (inactive)
A549
  GI50: > 100 µM (inactive)
T47D
  GI50: > 100 µM (inactive)
TK-10
  GI50: > 100 µM (inactive)
UACC-257
  GI50: > 100 µM (inactive)
OVCAR-8
  GI50: > 100 µM (inactive)
LOX IMVI
  GI50: > 100 µM (inactive)
EKVX
  GI50: > 100 µM (inactive)
COLO 205
  GI50: > 100 µM (inactive)
NCI-H460
  GI50: > 100 µM (inactive)
IGROV-1
  GI50: > 100 µM (inactive)
